Consider 8 compounds from article PMC7463931, “Structure-Antifouling Activity Relationship and Molecular Targets of Bio-Inspired(thio)xanthones” (Biomolecules, 2020).

What is called inhibition is the change of the read-out against control, counted positive when it falls. A higher inhibition goes with strong suppression. What is called LC50 is the concentration that kills 50% of the test population.

Read-outs that look alike come from different tables or passages of the source. Some results are limits rather than exact numbers.

Series [1] deals with T1, Electrophorus electric AChE Type V-S (Electrophorus electricus, UniProt O42275).
T1 construct: purchased SIGMA C2888
T1 sequence (O42275 24-633): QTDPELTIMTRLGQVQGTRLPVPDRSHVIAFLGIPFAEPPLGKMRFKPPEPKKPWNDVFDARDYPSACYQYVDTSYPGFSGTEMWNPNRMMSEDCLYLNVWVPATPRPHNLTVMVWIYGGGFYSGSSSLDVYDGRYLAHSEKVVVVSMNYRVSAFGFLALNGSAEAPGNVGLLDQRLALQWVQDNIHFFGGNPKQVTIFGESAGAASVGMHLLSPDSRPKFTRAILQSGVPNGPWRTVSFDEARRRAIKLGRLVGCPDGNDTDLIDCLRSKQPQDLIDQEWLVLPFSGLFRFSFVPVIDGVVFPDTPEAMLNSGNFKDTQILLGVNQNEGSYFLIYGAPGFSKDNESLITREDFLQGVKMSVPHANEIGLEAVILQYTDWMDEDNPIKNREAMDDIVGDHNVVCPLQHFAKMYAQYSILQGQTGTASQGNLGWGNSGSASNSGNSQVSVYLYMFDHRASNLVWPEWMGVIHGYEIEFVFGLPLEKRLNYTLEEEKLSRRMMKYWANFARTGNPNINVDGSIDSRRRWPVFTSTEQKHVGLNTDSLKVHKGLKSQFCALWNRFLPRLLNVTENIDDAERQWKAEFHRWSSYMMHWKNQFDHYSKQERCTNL
Kind of series: In vitro determination of acetylcholinesterase (AChE) inhibition activity. The following applies: for AChE inhibition compared to control: 50 µM; for dose-response of AChE activity: Figure 4b. It counts as biochemical. The method, then:
AChE inhibition was evaluated as a neurotransmission biomarker for the 19 compounds using Electrophorus electric AChE Type V-S (SIGMA C2888, E.C. 3.1.1.7), according to Ellman et al. (1961) and modified by Almeida et al. (2015). Briefly, 250 μL of the reaction solution containing 30 mL of phosphate buffer, 1mL of the reagent dithiobisnitrobenzoate (DTNB) at 10 mM (acid dithiobisnitrobenzoate and sodium hydrogen carbonate in phosphate buffer), and 200 μL of […] 0.075 M was added to 50 μL of pure AChE (0.25 U.mL^−1) and each test compound at final concentration of 30 μg mL^−1 in quadruplicate. AChE activity was followed at 412 nm during 5 min at 25 °C. Negative and positive controls were included, namely ultra-pure water and eserine (20 mM), respectively, and a blank containing 50 μL of phosphate buffer.

For series [2], the system named is Mytilus galloprovincialis plantigrade larvae. Kind of series: M. galloprovincialis larvae anti-settlement bioassay. The following applies: for EC50: dose-response, read-out: EC50 (concentration that inhibited 50% of larval settlement); for inhibition at 50 µM: initial screening bioassay at 50 µM, 15 h. Type of series: in vivo. On the procedure:
(§1) The 19 xanthone derivatives were screened for anti-settlement activity toward M. galloprovincialis plantigrade larvae. Samples of M. galloprovincialis juveniles were collected from mussel beds during low tides in the intertidal zone of Memória beach, Matosinhos, Portugal (41°13′59″ N; 8°43′28″ W). Mussel plantigrade larvae (0.5–2 mm) were sorted in a binocular magnifier (Olympus SZX2-ILLT, Tokyo, Japan) and kept in filtered seawater until bioassays preparation. […] Five competent larvae were included per well and four well replicates per condition. Stock solutions (50 mM) in DMSO were used to prepare test media in filtered seawater (0.1%). Negative and positive controls were used, namely DMSO (0.1%) and CuSO4 (5 μM) as an efficient antifouling agent. After exposure, the anti-settlement bioactivity was determined by the observation of efficiently attached plantigrade larvae considering the existence/absence of produced byssal threads for each test condition. Compounds producing more than 50% of settlement inhibition at 50 µM were selected for antifouling effectiveness (EC50) and toxicity (LC50 and therapeutic index) bioassays, according to previously validated experimental conditions.
(§2) Therapeutic ratios (LC50/EC50) were used to evaluate the effectiveness versus toxicity of bioactive compounds. For the differential proteome analysis, non-parametric Kruskall-Wallis (KW) and Mann Whitney (MW) tests were utilized to report protein abundance differences between treatments in MultiExperiment Viewer (MeV) version 4.9 (The Institute for Genomic Research (TIGR), La Jolla, CA, USA) at a confidence level of 95% [34]. The hierarchical clustering of proteins was made using Pearson correlation and average linkage method.

Series [3] in a line: Toxicity (mortality, LC50) to mussel plantigrade larvae in the anti-settlement bioassay. Type of series: in vivo, Mytilus galloprovincialis. As to conditions: Mytilus galloprovincialis, in vivo, other: immersion in test media in filtered seawater; mussel plantigrade larvae; read-out: LC50 (median lethal dose). On the procedure: as §1, §2
In a further series the test system is Artemia salina nauplii. In words: Brine shrimp (Artemia salina) lethality test. It counts as in vivo. As to conditions: 25 and 50 µM, 48 h of exposure. On the procedure: Ecotoxicity to non-target species was assessed using the brine shrimp (Artemia salina) lethality test standard protocol. Artemia cysts were cultivated and newly hatched nauplii I were used for the exposure to the most promising antifouling compounds at 50 and 25 µM. The bioassay was performed in 96-well microplates with eight replicates per condition and 15–20 nauplii per well. Positive (K2Cr2O7 at 13.6 µM) and negative (DMSO) controls were included. After 48 h of exposure, the percentage of nauplii mortality was determined.

The subject of series [4] is Agaricus bisporus tyrosinase. In words: In vitro determination of tyrosinase inhibition activity. It counts as biochemical. The method, then: Tyrosinase inhibition assays were conducted using Agaricus bisporus tyrosinase (EC 1.14.18.1) according to Adhikari et al. with appropriate adaptations. The enzymatic reaction follows the catalytic conversion of L-Dopa to dopaquinone and the formation of dopachrome by measuring the absorbance at 475 nm. Briefly, 50 µL of tyrosinase (25 U.mL^−1) in 50 mM phosphate buffer pH 6.5, adding the defined concentration of compounds in DMSO. The enzymatic activity was initiated by L-dopa (25 mM). Kojic acid was used as positive control and DMSO as negative control.

Series [5] relates to Mytilus galloprovincialis plantigrade larvae. Kind of series: Toxicity (mortality, LC50) to mussel plantigrade larvae in the anti-settlement bioassay. Type of series: in vivo. The method, then:
as §1, §2

Series [6] has the same test system. The arrangement: method as in PMID 31669574. The following applies: at 108 µM, same bioassay conditions; cited from earlier work.

Regarding `O=c1c2ccccc2oc2c(O)cccc12` [Compound 4, 4-hydroxy-], in series [1], the “AChE inhibition compared to control” value is “showed AChE inhibition” and the “dose-response of AChE activity” value is “concentration-dependent modulation of AChE activity”. Moreover, the EC50 in series [2] (Probit regression, 95% CI) was determined as 21.5 µM. For the same compound, in series [2], the EC50 is 4.55 mg/L and at 50 µM the inhibition was 70 ± 12.9%. Besides, in series [3], the LC50 at 15 h was above 500 µM. In the series with Artemia salina nauplii, this compound returned an Artemia salina mortality above 10%.
`O=c1c2ccccc2oc2ccc(O)c(O)c12` [Compound 5, 1,2-dihydroxy-]: in series [1], the “AChE inhibition compared to control” value is recorded as “showed AChE inhibition” and the “dose-response of AChE activity” value is listed as “concentration-dependent modulation of AChE activity”. The EC50 in series [2] (Probit regression, 95% CI) stood at 15.5 µM. Moreover, in series [2], the EC50 is 3.52 mg/L and the inhibition at 50 µM is 70 ± 12.9%. The LC50 at 15 h in series [3] was above 500 µM. In addition, the Artemia salina mortality in the series on Artemia salina nauplii is given as above 10%.
On to `O=c1c2ccccc2oc2c(O)c(O)ccc12` [Compound 7, 3,4-dihydroxy-], for which the “induction of tyrosinase activity” value was determined as 11.7% in series [4] (25 μM) and 62.5% in series [4] (200 μM). The EC50 in series [2] (Probit regression, 95% CI) was 11.5 µM; in series [2], 2.63 mg/L. The compound further gave an inhibition at 50 µM in series [2] of 65 ± 17.1%. For the same compound, the LC50 at 15 h in series [3] was above 500 µM. In the series with Artemia salina nauplii, this compound gave an Artemia salina mortality below 10%.
Consider `O=c1c2ccc(O)cc2oc2cc(O)ccc12` [Compound 8, 3,6-dihydroxy-], for which the “inhibition of tyrosinase activity” value in series [4] (50 µM) is reported as 34%.
As for `CC1(C)CCc2cc3c(=O)c4ccccc4oc3c(O)c2O1` [Compound 10, 4-dihydro-12-hydroxy-2,2-dimethyl-2H,6H-pyrano [3,2-b]xanthone], in series [2] (Probit regression, 95% CI), the EC50 turned out to be 4.6 µM. In series [2], the EC50 was 1.36 mg/L and the inhibition at 50 µM stood at 75 ± 9.6%. Besides, in series [5] (at 100 µM), the “mortality of mussel plantigrade larvae” value is recorded as 15%. The LC50 at 15 h in series [3] was above 500 µM. In the series on Artemia salina nauplii, this compound showed an Artemia salina mortality below 10%.
With `CCCOc1ccc(NCCc2ccc3c(c2)OCO3)c2c(=O)c3ccccc3sc12` [Compound 15, 1-[11]-4-propoxy-9H-thioxanthen-9-one], the EC50 in series [2] (Probit regression, 95% CI) came to 28.6 µM; in series [2], 12.4 mg/L. This compound registered an inhibition at 50 µM in series [2] of 71.2 ± 10.9%. For the same compound, the LC50 at 15 h in series [3] is above 500 µM. Besides, in the series on Artemia salina nauplii, the Artemia salina mortality is above 10%.
As to `CCCOc1ccc(N2CCCCC2)c2c(=O)c3ccccc3sc12` [Compound 17, 1-(piperidin-1-yl)-4-propoxy-9H-thioxanthen-9-one], the EC50 in series [2] (Probit regression, 95% CI) was 3.53 µM. Moreover, in series [2], the EC50 turned out to be 1.25 mg/L and the inhibition at 50 µM came to 71.7 ± 5%. For the same compound, the “mortality of mussel plantigrade larvae” value in series [5] (at 500 µM) is on record as 17%. The LC50 at 15 h in series [3] was above 500 µM. This compound showed an Artemia salina mortality with Artemia salina nauplii above 10%.
Take `N#Cc1c(-c2ccc(Cl)cc2)[nH]c(C(F)(F)F)c1Br` [ECONEA]: the “mortality of mussel plantigrade larvae” value in series [6] is 50%.
